Source: ChEMBL document CHEMBL1201862, “PubChem BioAssay data set” (2004)
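Exposure lasted 48 hours, with cells grown in 96-well plates and compounds tested at five concentrations. Here, GI50 denotes the concentration required for 50% inhibition of growth.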 The source made the active and inactive calls. Cut-off read from the data, not from the text of the source: active = GI50 up to about 1.1 µM and inactive = higher.

Assays:
Test in all cases: inhibition of tumour cell growth, NCI panel, 48 h
SK-MEL-5 = system: SK-MEL-5
NCI-H460 = system: NCI-H460
LOX IMVI = system: LOX IMVI
ACHN = system: ACHN
DU-145 = system: DU-145
HL-60 = system: HL-60
A549 = system: A549
UACC-62 = system: UACC-62
MDA-MB-435 = system: MDA-MB-435
NCI-H522 = system: NCI-H522
M14 = system: M14
SK-MEL-2 = system: SK-MEL-2
IGROV-1 = system: IGROV-1
SK-MEL-28 = system: SK-MEL-28
PC-3 = system: PC-3
HCT-15 = system: HCT-15
786-0 = system: 786-0
UACC-257 = system: UACC-257
SN12C = system: SN12C
CAKI-1 = system: CAKI-1
OVCAR-5 = system: OVCAR-5
TK-10 = system: TK-10
UO-31 = system: UO-31
K562 = system: K562
MOLT-4 = system: MOLT-4
A498 = system: A498
OVCAR-8 = system: OVCAR-8
HCT-116 = system: HCT-116
NCI-H226 = system: NCI-H226
HOP-62 = system: HOP-62
BT-549 = system: BT-549
SNB-19 = system: SNB-19
MDA-MB-231 = system: MDA-MB-231
RPMI-8226 = system: RPMI-8226
NCI-H23 = system: NCI-H23
MCF7 = system: MCF7
OVCAR-3 = system: OVCAR-3
T47D = system: T47D
OVCAR-4 = system: OVCAR-4
Malme-3M = system: Malme-3M
HT-29 = system: HT-29
SW-620 = system: SW-620
SR = system: SR
SF-268 = system: SF-268
SNB-75 = system: SNB-75
HCC 2998 = system: HCC 2998
CCRF-CEM = system: CCRF-CEM
U-251 = system: U-251
COLO 205 = system: COLO 205
SF-539 = system: SF-539
KM12 = system: KM12
RXF 393 = system: RXF 393
SF-295 = system: SF-295
HOP-92 = system: HOP-92
EKVX = system: EKVX
SK-OV-3 = system: SK-OV-3
Hs-578T = system: Hs-578T
NCI/ADR-RES = system: NCI/ADR-RES

For `NC(CCCCNC(=O)CNC(=O)OCc1ccccc1)C(=O)NC(CCCCNC(=O)CNC(=O)OCc1ccccc1)C(=O)NC(CCCCNC(=O)CNC(=O)OCc1ccccc1)C(=O)NC(CCCCNC(=O)CNC(=O)OCc1ccccc1)C(=O)NC(CCCCNC(=O)CNC(=O)OCc1ccccc1)C(=O)NC(CCCCNC(=O)CNC(=O)OCc1ccccc1)C(=O)O` (centres undefined), the GI50 (SK-MEL-5) was > 75 µM (inactive), the GI50 (NCI-H460) was > 75 µM (inactive) and the GI50 (LOX IMVI) was > 75 µM (inactive). For the same compound, the GI50 (ACHN) was > 75 µM (inactive), the GI50 (DU-145) was > 75 µM (inactive) and the GI50 (HL-60) was > 75 µM (inactive). The GI50 (A549) was > 75 µM (inactive), the GI50 (UACC-62) was > 75 µM (inactive) and the GI50 (MDA-MB-435) was > 75 µM (inactive). The GI50 (NCI-H522) was 16.9 µM (inactive), the GI50 (M14) was > 75 µM (inactive) and the GI50 (SK-MEL-2) was > 75 µM (inactive). The GI50 (IGROV-1) was > 75 µM (inactive), the GI50 (SK-MEL-28) was > 75 µM (inactive) and the GI50 (PC-3) was > 75 µM (inactive). For the same compound, the GI50 (HCT-15) was over 75 µM, the GI50 (786-0) was > 75 µM (inactive) and the GI50 (UACC-257) was > 75 µM (inactive). The GI50 (SN12C) was > 75 µM (inactive), the GI50 (CAKI-1) was > 75 µM (inactive) and the GI50 (OVCAR-5) was > 75 µM (inactive). The GI50 (TK-10) was > 75 µM (inactive), the GI50 (UO-31) was > 75 µM (inactive) and the GI50 (K562) was > 75 µM (inactive). The GI50 (MOLT-4) was > 75 µM (inactive), the GI50 (A498) was > 75 µM (inactive) and the GI50 (OVCAR-8) was > 75 µM (inactive). For the same compound, the GI50 (HCT-116) was > 75 µM (inactive), the GI50 (NCI-H226) was > 75 µM (inactive) and the GI50 (HOP-62) was > 75 µM (inactive). For the same compound, the GI50 (BT-549) was > 75 µM (inactive), the GI50 (SNB-19) was > 75 µM (inactive) and the GI50 (MDA-MB-231) was > 75 µM (inactive). The GI50 (RPMI-8226) was > 75 µM (inactive), the GI50 (NCI-H23) was > 75 µM (inactive) and the GI50 (MCF7) was > 75 µM (inactive). The GI50 (OVCAR-3) was > 75 µM (inactive), the GI50 (T47D) was > 75 µM (inactive) and the GI50 (OVCAR-4) was > 75 µM (inactive). For the same compound, the GI50 (Malme-3M) was > 75 µM (inactive), the GI50 (HT-29) was > 75 µM (inactive) and the GI50 (SW-620) was > 75 µM (inactive). For the same compound, the GI50 (SR) was > 75 µM (inactive), the GI50 (SF-268) was > 75 µM (inactive) and the GI50 (SNB-75) was > 75 µM (inactive). The GI50 (HCC 2998) was > 75 µM (inactive), the GI50 (CCRF-CEM) was > 75 µM (inactive) and the GI50 (U-251) was > 75 µM (inactive).
In the case of `CCOC(=O)CSc1nc(-c2ccccc2)c(C#N)c(=O)[nH]1`, the GI50 (COLO 205) is reported as > 100 µM (inactive), the GI50 (SK-MEL-5) is reported as > 100 µM (inactive) and the GI50 (NCI-H460) is reported as > 100 µM (inactive). The GI50 (SF-539) was > 100 µM (inactive), the GI50 (ACHN) was > 100 µM (inactive) and the GI50 (DU-145) was > 100 µM (inactive). The GI50 (HL-60) was > 100 µM (inactive), the GI50 (A549) was > 100 µM (inactive) and the GI50 (UACC-62) was > 100 µM (inactive). The GI50 (MDA-MB-435) was > 100 µM (inactive), the GI50 (NCI-H522) was 21.4 µM (inactive) and the GI50 (M14) was > 100 µM (inactive). The GI50 (SK-MEL-2) was > 100 µM (inactive), the GI50 (IGROV-1) was > 100 µM (inactive) and the GI50 (SK-MEL-28) was > 100 µM (inactive). The GI50 (PC-3) was > 100 µM (inactive), the GI50 (HCT-15) was over 100 µM and the GI50 (786-0) was > 100 µM (inactive). For the same compound, the GI50 (UACC-257) was > 100 µM (inactive), the GI50 (SN12C) was > 100 µM (inactive) and the GI50 (CAKI-1) was > 100 µM (inactive). For the same compound, the GI50 (OVCAR-5) was > 100 µM (inactive), the GI50 (KM12) was > 100 µM (inactive) and the GI50 (TK-10) was > 100 µM (inactive). The GI50 (UO-31) was > 100 µM (inactive), the GI50 (K562) was > 100 µM (inactive) and the GI50 (MOLT-4) was > 100 µM (inactive). For the same compound, the GI50 (A498) was > 100 µM (inactive), the GI50 (OVCAR-8) was > 100 µM (inactive) and the GI50 (HCT-116) was > 100 µM (inactive). For the same compound, the GI50 (NCI-H226) was > 100 µM (inactive), the GI50 (RXF 393) was > 100 µM (inactive) and the GI50 (HOP-62) was > 100 µM (inactive). For the same compound, the GI50 (SF-295) was > 100 µM (inactive), the GI50 (BT-549) was > 100 µM (inactive) and the GI50 (SNB-19) was > 100 µM (inactive). For the same compound, the GI50 (MDA-MB-231) was > 100 µM (inactive), the GI50 (RPMI-8226) was > 100 µM (inactive) and the GI50 (NCI-H23) was > 100 µM (inactive). The GI50 (MCF7) was > 100 µM (inactive), the GI50 (OVCAR-3) was > 100 µM (inactive) and the GI50 (HOP-92) was > 100 µM (inactive). For the same compound, the GI50 (EKVX) was > 100 µM (inactive), the GI50 (T47D) was > 100 µM (inactive) and the GI50 (OVCAR-4) was > 100 µM (inactive). For the same compound, the GI50 (HT-29) was > 100 µM (inactive), the GI50 (SK-OV-3) was > 100 µM (inactive) and the GI50 (SW-620) was > 100 µM (inactive). For the same compound, the GI50 (Hs-578T) was > 100 µM (inactive), the GI50 (SR) was > 100 µM (inactive) and the GI50 (SF-268) was > 100 µM (inactive). The GI50 (SNB-75) was > 100 µM (inactive), the GI50 (NCI/ADR-RES) was > 100 µM (inactive) and the GI50 (HCC 2998) was > 100 µM (inactive). For the same compound, the GI50 (CCRF-CEM) was > 100 µM (inactive) and the GI50 (U-251) was > 100 µM (inactive).
